The source of these data is patent US10046005B2, “Composition and method of use for combinations of anti-viral protease, polymerase inhibitors and natural bioactive compounds in the treatment of hepatitis C infection” (priority 2014, dated 2018).

Molecules are shown by their SMILES.

Data set [1] is described as follows: Dissolution of Catvira film coated tablets (Ribavirin and Sofosbuvir released). It counts as physicochemical. As for the experimental part: • 1.1. Description: Yellow to deep yellow, oblong, biconvex, film coated tablets • 1.2. Determination of Average of Weight: (Limit: 1000 mg±5%) Proceed as BP2014 • 1.3. Determination of Disintegration Time: (Limit: NMT 30 min) Proceed as USP 35 • 1.4. Determination of Dissolution test for Sofosbuvir and Ribavirin:— Conditions of Dissolution:— • USP Apparatus: II (Paddle) • Speed: […] & Materials:— • Methanol HPLC Grade. • Acetonitrile HPLC Grade • Tetrahydrofuran HPLC Grade. • Ammonium acetate • Sofosbuvir and Ribavirin working standard. Apparatus & Equipement:— • Calibrated Analytical balance accurate to±0.1 mg • HPLC:—Waters UV detector or equivalent • Column: Symmetry (C18 (5 μm) 4.6×250 mm) or equivalent. • Sonicator with temperature control • Volumetric flasks • Pipettes class A Chromatographic Conditions:— • Column: Symmetry (C18 (5 μm) 4.6×250 mm) or equivalent. • Flow rate: 0.8 ml/min. • Detector: UV at λ242 nm • Injection volume: 10 μl • Mobile phase: (Acetonitrile: Tetrahydrofuran: Ammonium Acetate) (10:40:50) • Acetate Buffer: into 1000 ml volumetric flask, weight 1 gm of Ammonium Acetate buffer, add 900 ml purified water shake to dissolve then complete to the volume by the same solvent, adjust pH 3.5 by Glacial Acetic acid. […]

The test system of a further data set is HCV. The data set can be described thus: HCV viral entry into human host cells. It counts as cell-based.

On to `CC(C)OC(=O)[C@H](C)N[P@](=O)(OC[C@H]1O[C@@H](n2ccc(=O)[nH]c2=O)[C@](C)(F)[C@@H]1O)Oc1ccccc1` [Sofosbuvir, Isopropyl (2S)-2-[(2R, 3R, 4R, 5R)-5-(2,4-dioxopyrimidin-1-yl)-4-fluoro-3-hydroxy-4-methyl-tetrahydrofuran-2-yl] methoxy-phenoxy-phosphoryl] amino] propanoate], for which the Dissolution in data set [1] (pH 1.2, 5 min) worked out at 13.82%; in data set [1] (pH 1.2, 10 min), 28.77%; in data set [1] (pH 1.2, 15 min), 44.57%; in data set [1] (pH 1.2, 20 min), 63.43%; in data set [1] (pH 1.2, 30 min) it was 85.39%; in data set [1] (pH 1.2, 45 min), 86.07%. Moreover, the Dissolution in data set [1] (pH 1.2, 60 min) turned out to be 88.13%; in data set [1] (pH 1.2, 90 min) it was 90.79%; in data set [1] (pH 4.5, 5 min) it was 15.00%; in data set [1] (pH 4.5, 10 min), 33.94%; in data set [1] (pH 4.5, 15 min) it was 52.46%; in data set [1] (pH 4.5, 20 min), 74.22%. Further, the Dissolution in data set [1] (pH 4.5, 30 min) is given as 98.95%; in data set [1] (pH 4.5, 45 min), 100.44%; in data set [1] (pH 4.5, 60 min), 101.08%; in data set [1] (pH 4.5, 90 min) it was 102.04%; in data set [1] (pH 6.8, 5 min), 36.18%; in data set [1] (pH 6.8, 10 min), 65.56%. The Dissolution is 83.04% in data set [1] (pH 6.8, 15 min); 97.55% in data set [1] (pH 6.8, 20 min); 99.80% in data set [1] (pH 6.8, 30 min); 100.04% in data set [1] (pH 6.8, 45 min); 100.47% in data set [1] (pH 6.8, 60 min); 100.39% in data set [1] (pH 6.8, 90 min).
On to `O=C(O[C@@H]1Cc2c(O)cc(O)cc2O[C@@H]1c1cc(O)c(O)c(O)c1)c1cc(O)c(O)c(O)c1` [EGCG, (−)-Epigallocatechin Gallate], for which the “HCV viral entry into human host cells” value in the data set on HCV is recorded as “effectively suppressed”.
In the case of `NC(=O)c1ncn([C@@H]2O[C@H](CO)[C@@H](O)[C@H]2O)n1` [Ribavirin, 1-[(2R,3R,4S,5R)-3,4-dihydroxy-5-(hydroxymethyl)oxolan-2-yl]-1H-1,2,4-triazole-3-carboxamide], the Dissolution turned out to be 25.34% in data set [1] (pH 1.2, 5 min); 43.13% in data set [1] (pH 1.2, 10 min); 62.29% in data set [1] (pH 1.2, 15 min); 80.69% in data set [1] (pH 1.2, 20 min); 100.74% in data set [1] (pH 1.2, 30 min); 101.36% in data set [1] (pH 1.2, 45 min). Moreover, the Dissolution is 101.87% in data set [1] (pH 1.2, 60 min); 101.97% in data set [1] (pH 1.2, 90 min); 29.46% in data set [1] (pH 4.5, 5 min); 47.54% in data set [1] (pH 4.5, 10 min); 68.75% in data set [1] (pH 4.5, 15 min); 85.33% in data set [1] (pH 4.5, 20 min). For the same compound, the Dissolution turned out to be 101.35% in data set [1] (pH 4.5, 30 min); 101.42% in data set [1] (pH 4.5, 45 min); 102.72% in data set [1] (pH 4.5, 60 min); 102.97% in data set [1] (pH 4.5, 90 min); 59.24% in data set [1] (pH 6.8, 5 min); 76.73% in data set [1] (pH 6.8, 10 min). Moreover, the Dissolution in data set [1] (pH 6.8, 15 min) was 88.40%; in data set [1] (pH 6.8, 20 min) it was 92.31%; in data set [1] (pH 6.8, 30 min) it was 93.23%; in data set [1] (pH 6.8, 45 min) it was 93.09%; in data set [1] (pH 6.8, 60 min), 93.31%; in data set [1] (pH 6.8, 90 min) it was 94.02%.
